Data from patent publication US20220125893A1, “METHODS FOR TREATING ARTHRITIS USING SPL-108 PEPTIDE” (Splash Pharmaceuticals, Inc., priority 2019, published 2022).

Tests used:
CIA mice = experiment: Collagen-induced arthritis (CIA) mouse model; assay type: in vivo
Excerpt: FIGS. 10A, 10B, 10C, 10D, and 10E show histology and histological scores in ankles collected at the end of the experiments. At the end of the experiment, ankle bones were collected and decalcified in EDTA for 10 days. Decalcified bones were embedded and sagittal sections obtained and stained. H&E staining was used to help score cell infiltration, synovial thickness, and bone damage (FIG. 10A). In the figure, safranin staining will help to score cartilage damage. Black arrows show infiltration in arthritic mice treated with PBS compared to control mice without arthritis. White arrows show lack of safranin staining in the arthritic mice cartilage because of proteoglycan degradation compared to control mice without arthritis.
In the examples below, mice were used in a collagen-induced arthritis (CIA) model, a commonly used model to examine pathogenesis of rheumatoid arthritis. […] At day 0, mice were immunized with type II collagen/CFA. […] Arthritis onset subsequently occurs 4-10 days after the day 28 LPS injection. The experimental groups consisted of four groups: group 1: 6 CIA mice treated with vehicle; group 2: 6 CIA mice treated with […] SPL-108 twice a day, starting at arthritis onset (between day 32 to 36); group 3: 6 CIA mice treated with 100 mg/kg SPL-108 twice a day, starting at arthritis onset (between day 32 to 36); and group 4: 6 mice without CIA and not treated (negative control). In preventive strategies, a prophylactic treatment of SPL-108 would be started at day 0, at the time of first immunization.
FIGS. 10A, 10B, 10C, 10D, and 10E show histological scores of ankle bones collected at the end of experiments. At the end of the experiment, ankles were collected and decalcified in EDTA for 10 days. They were embedded and sagittal sections were obtained and stained. H&E staining was used to help score cell infiltration, synovial thickness, and bone damage. In the figure, safranin staining will help to score cartilage damage. Black arrows show infiltration in arthritic mice treated with PBS compared to control mice without arthritis. White arrows show lack of safranin staining (red) in the arthritic mice cartilage because of proteoglycan degradation compared to control mice without arthritis.

[1] = system: fibroblast-like synoviocytes (FLSs); experiment: In vitro Matrigel invasion assay of FLSs; assay type: cell-based; details: 0.1, 1.0, 10.0, 100 μM; presence and absence of PDGF 10 ng/mL
Experimental: FIG. 8A and FIG. 8B show the effects of SPL-108 (A6) on the invasion of FLSs using an in vitro Matrigel invasion assay. Platelet-derived growth factor (10 ng/mL) was used to stimulate invasion and the area of invasion was measured in […] before and after the addition of 0.1, 1.0, 10.0, and 100 μM SPL-108 (A6) in the presence and absence of PDGF.

[2] = system: fibroblast-like synoviocytes (FLSs); experiment: In vitro Scratch migration assay of FLSs; assay type: cell-based; details: 0.1, 1.0, 10.0, 100 μM
Experimental: Cells were grown to confluence and a thin “wound” was introduced by scratching with a pipette tip. Cells at the wound edge polarize and migrate into the wound space.

[3] = system: pre-existing osteoarthritis; experiment: Osteoarthritis symptoms in ovarian cancer patients on SPL-108 plus paclitaxel; assay type: in vivo, human; details: two patients; SPL-108 150 mg twice a day with paclitaxel 80 mg/m^2 weekly on Days 1, 8, 15, three 28-day cycles
Experimental: Two patients diagnosed with […] ovarian cancer, and enrolled in a clinical trial for evaluating the efficacy of SPL-108 in combination with paclitaxel (standard-of-care treatment), reported relief from symptoms of pre-existing osteoarthritis. Each patient received SPL-108 150 mg twice a day and Paclitaxel 80 mg/m^2 weekly on Days 1, 8, and 15, in three 28-day cycles. Each patient received a total of 25,200 mg of SPL-108 over the course of treatment.

[4] = system: arthritis-induced osteoclastogenesis; details: other animal studies; cited from earlier work
[5] = ankles at end of experiment, H&E staining
[6] = either dose (50 or 100 mg/kg twice a day)

Substance: Ac-KPSSPPEE-NH2 [SPL-108]
- clinical score vs vehicle, significance (CIA mice; 50 mg/kg twice a day): significantly different at day 4, 5, 6, 7
- paw swelling vs vehicle, significance (CIA mice; 50 mg/kg twice a day): significantly different from day 11 to day 19
- body weight vs vehicle, significance (CIA mice; 50 mg/kg twice a day from arthritis onset): significantly different at day 7 and 9
- clinical score vs vehicle, significance (CIA mice; 100 mg/kg twice a day): significantly different from day 4 to day 20
- paw swelling vs vehicle, significance (CIA mice; 100 mg/kg twice a day): significantly different from day 11 to day 19
- body weight vs vehicle, significance (CIA mice; 100 mg/kg twice a day from arthritis onset): significantly different at day 5, 7, 9 and 11
- body weight decrease (CIA mice; CIA mice, through 11 days after disease onset, vehicle 3 grams decrease): ~1 gram
- bone damage (histological score) (CIA mice; [5]): reduction
- synovial hypertrophy (histological score) (CIA mice; [5]): reduction
- synovial infiltration (histological score) (CIA mice; [5]): reduction
- cartilage damage (histological score) (CIA mice; ankles at end of experiment, safranin staining): reduction
- clinical score compared to vehicle (CIA mice; [6]): lower
- paw swelling (paw size) compared to vehicle (CIA mice; [6]): lower
- invasion of FLSs (area of invasion) [1]: inhibited the invasion of FLSs in a dose-dependent manner
- migration of FLSs into wound space [2]: inhibited the migration of FLSs in a dose-dependent manner
- improvement in osteoarthritis symptoms [3]: reduction to elimination of joint pain
- arthritis-induced osteoclastogenesis [4]: inhibited arthritis-induced osteoclastogenesis
